Source: paper PMC8449129, “Single tracer-based protocol for broad-spectrum kinase profiling in live cells with NanoBRET” (STAR Protocols, 2021)

Assays:
Test in all cases: cell-based
Design in all cases: NanoBRET live-cell target engagement; % occupancy from displacement of tracer K10 on NanoLuc-kinase fusions, mean n=3
Settings in all cases: HEK293, read-out: % inhibition
[1] = target: SGK1 (Homo sapiens, UniProt O00141)
Method in brief: (§1)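 Live-cell NanoBRET target engagement: cells expressing kinase–NanoLuc fusion with tracer treated with compound 2 h at 37 °C, 5% CO2. BRET read from donor (450 nm) and acceptor (610/630 nm) emission with 20 μM extracellular NanoLuc inhibitor; % occupancy calculated relative to tracer+DMSO and zero-BRET controls.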

[2] = target: TNK2 (Homo sapiens, UniProt Q07912)
Sequence of TNK2 (Q07912 whole entry): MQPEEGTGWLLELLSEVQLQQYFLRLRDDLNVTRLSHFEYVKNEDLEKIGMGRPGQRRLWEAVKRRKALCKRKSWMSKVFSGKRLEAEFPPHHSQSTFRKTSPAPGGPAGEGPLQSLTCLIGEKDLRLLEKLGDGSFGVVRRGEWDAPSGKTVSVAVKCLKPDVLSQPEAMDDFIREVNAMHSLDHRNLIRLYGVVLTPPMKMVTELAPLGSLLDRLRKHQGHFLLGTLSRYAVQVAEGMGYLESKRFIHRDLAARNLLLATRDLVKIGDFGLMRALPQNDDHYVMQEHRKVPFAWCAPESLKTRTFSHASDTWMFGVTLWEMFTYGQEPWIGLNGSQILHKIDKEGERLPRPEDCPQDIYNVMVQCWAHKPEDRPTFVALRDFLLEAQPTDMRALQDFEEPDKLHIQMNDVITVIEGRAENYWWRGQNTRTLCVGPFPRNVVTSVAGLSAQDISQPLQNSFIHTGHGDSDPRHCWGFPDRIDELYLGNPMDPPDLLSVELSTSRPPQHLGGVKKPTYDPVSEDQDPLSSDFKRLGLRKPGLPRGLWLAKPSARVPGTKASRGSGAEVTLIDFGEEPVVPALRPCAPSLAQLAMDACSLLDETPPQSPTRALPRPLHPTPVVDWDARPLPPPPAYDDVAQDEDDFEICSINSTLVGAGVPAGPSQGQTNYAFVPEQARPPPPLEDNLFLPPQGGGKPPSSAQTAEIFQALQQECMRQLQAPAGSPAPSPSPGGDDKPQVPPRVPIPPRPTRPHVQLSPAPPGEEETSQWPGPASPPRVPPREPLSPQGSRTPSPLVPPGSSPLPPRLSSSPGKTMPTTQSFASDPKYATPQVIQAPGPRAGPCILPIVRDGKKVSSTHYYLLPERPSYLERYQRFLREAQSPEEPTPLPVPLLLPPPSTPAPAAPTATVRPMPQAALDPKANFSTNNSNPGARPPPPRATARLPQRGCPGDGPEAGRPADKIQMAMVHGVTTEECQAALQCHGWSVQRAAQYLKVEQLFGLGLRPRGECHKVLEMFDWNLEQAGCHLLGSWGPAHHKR
Method in brief: as §1

[3] = target: CDK5 (Homo sapiens, UniProt Q00535)
Sequence of CDK5 (Q00535 whole entry): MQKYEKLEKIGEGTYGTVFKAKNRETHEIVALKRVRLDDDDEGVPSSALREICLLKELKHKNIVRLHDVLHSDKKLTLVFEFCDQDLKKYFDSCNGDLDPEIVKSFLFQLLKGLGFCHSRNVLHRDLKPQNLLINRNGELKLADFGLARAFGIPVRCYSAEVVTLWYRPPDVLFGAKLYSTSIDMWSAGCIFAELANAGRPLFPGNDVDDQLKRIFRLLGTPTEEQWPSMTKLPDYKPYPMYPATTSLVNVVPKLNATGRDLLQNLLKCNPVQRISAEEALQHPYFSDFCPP
Method in brief: as §1

[4] = target: T1, JNK3 (Homo sapiens, UniProt P53779)
T1 construct: gene MAPK10
Method in brief: as §1

[5] = target: IGF1R (Homo sapiens, UniProt P08069)
Method in brief: as §1

[6] = target: SNRK (Homo sapiens, UniProt Q9NRH2)
Method in brief: as §1

[7] = target: STK16 (Homo sapiens, UniProt O75716)
Sequence of STK16 (O75716 whole entry): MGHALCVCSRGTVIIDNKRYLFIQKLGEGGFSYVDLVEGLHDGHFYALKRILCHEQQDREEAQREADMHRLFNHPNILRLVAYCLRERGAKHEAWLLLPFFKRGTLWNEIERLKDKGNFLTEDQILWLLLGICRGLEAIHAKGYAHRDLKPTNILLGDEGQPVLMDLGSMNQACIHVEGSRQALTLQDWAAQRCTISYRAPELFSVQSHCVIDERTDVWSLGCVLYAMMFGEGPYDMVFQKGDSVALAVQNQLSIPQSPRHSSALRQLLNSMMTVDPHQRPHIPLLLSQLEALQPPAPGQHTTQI
Method in brief: as §1

[8] = target: WEE2 (Homo sapiens, UniProt P0C1S8)
Method in brief: as §1

[9] = target: GAK (Homo sapiens, UniProt O14976)
Method in brief: as §1

[10] = target: LATS2 (Homo sapiens, UniProt Q9NRM7)
Method in brief: as §1

[11] = target: NEK4 (Homo sapiens, UniProt P51957)
Method in brief: as §1

[12] = target: CDK10 (Homo sapiens, UniProt Q15131)
Sequence of CDK10 (Q15131 whole entry): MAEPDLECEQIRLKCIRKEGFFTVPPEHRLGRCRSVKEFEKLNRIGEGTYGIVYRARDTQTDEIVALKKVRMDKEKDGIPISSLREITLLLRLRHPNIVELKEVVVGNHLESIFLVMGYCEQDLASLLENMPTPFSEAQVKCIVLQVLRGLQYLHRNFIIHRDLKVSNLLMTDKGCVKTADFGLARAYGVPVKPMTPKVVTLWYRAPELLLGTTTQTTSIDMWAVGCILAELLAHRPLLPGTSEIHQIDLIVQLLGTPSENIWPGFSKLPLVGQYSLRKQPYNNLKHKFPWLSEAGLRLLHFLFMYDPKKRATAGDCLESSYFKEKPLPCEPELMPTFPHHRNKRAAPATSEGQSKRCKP
Method in brief: as §1

[13] = target: TNK1 (Homo sapiens, UniProt Q13470)
Sequence of TNK1 (Q13470 whole entry): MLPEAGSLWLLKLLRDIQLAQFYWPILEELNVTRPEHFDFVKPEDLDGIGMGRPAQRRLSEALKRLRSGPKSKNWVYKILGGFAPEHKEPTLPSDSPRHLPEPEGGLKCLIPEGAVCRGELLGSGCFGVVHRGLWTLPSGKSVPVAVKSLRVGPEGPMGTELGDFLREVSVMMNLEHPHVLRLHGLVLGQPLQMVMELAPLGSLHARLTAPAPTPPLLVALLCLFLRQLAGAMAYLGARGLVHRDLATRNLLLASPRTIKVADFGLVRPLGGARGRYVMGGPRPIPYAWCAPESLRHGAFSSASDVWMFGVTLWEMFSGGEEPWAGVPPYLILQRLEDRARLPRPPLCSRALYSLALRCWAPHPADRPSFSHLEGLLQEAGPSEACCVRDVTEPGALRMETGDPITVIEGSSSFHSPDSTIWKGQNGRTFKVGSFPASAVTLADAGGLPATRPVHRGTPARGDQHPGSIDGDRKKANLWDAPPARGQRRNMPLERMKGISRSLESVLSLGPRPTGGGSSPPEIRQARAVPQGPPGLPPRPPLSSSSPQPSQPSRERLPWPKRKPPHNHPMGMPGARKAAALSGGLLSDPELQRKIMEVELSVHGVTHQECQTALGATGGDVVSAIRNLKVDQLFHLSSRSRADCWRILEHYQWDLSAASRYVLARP
Method in brief: as §1

[14] = target: CDK16 (Homo sapiens, UniProt Q00536)
Sequence of CDK16 (Q00536 whole entry): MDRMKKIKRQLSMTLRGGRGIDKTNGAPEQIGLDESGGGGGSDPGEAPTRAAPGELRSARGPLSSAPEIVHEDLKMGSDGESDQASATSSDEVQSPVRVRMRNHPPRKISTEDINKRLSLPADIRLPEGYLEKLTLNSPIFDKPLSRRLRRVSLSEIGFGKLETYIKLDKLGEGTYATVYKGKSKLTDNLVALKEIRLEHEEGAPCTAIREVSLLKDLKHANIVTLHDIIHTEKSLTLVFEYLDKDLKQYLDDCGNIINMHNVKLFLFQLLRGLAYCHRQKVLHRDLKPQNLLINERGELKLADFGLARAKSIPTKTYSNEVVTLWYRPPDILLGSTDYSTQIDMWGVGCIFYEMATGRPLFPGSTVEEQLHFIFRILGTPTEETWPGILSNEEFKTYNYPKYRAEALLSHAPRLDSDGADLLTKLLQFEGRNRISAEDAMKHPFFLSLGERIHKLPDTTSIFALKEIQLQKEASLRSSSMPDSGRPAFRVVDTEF
Method in brief: as §1

[15] = target: STK11 (Homo sapiens, UniProt Q15831)
Sequence of STK11 (Q15831 whole entry): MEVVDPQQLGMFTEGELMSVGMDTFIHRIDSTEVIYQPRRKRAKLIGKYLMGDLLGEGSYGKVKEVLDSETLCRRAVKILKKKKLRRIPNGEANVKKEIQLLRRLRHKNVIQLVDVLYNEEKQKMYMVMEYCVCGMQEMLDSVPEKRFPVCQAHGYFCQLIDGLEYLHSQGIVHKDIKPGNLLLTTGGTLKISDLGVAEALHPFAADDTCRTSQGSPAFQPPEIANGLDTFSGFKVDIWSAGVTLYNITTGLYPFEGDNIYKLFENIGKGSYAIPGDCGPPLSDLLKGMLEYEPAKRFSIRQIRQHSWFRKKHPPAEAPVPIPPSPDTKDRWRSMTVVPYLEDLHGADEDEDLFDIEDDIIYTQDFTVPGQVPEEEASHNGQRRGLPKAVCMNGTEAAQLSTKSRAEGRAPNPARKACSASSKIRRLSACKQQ
Method in brief: as §1

[16] = target: ERN2 (Homo sapiens, UniProt Q76MJ5)
Sequence of ERN2 (Q76MJ5 whole entry): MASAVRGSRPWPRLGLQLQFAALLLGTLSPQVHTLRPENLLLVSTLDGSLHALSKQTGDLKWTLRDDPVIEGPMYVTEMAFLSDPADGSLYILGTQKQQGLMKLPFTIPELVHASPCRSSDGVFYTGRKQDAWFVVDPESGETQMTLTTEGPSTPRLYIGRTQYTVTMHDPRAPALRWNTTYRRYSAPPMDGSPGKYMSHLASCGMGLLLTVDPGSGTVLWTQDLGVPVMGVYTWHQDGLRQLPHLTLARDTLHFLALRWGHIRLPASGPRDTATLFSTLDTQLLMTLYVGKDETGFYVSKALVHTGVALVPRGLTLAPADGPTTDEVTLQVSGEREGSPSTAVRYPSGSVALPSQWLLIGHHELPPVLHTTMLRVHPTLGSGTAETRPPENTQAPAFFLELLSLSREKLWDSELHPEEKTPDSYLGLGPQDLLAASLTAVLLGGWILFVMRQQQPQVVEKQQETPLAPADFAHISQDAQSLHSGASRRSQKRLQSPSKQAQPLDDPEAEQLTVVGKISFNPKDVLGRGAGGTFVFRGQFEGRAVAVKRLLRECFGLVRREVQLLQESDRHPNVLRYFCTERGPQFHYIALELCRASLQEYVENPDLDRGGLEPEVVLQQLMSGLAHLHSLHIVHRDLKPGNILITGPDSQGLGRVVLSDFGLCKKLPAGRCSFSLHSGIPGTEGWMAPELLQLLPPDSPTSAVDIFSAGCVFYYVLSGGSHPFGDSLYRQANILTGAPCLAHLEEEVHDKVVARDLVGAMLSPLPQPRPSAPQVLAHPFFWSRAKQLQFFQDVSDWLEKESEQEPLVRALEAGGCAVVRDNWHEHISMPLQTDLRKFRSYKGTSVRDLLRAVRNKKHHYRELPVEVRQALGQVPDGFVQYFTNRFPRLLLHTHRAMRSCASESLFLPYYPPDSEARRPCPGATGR
Method in brief: as §1

[17] = target: IRAK4 (Homo sapiens, UniProt Q9NWZ3)
Method in brief: as §1

[18] = target: CSNK2A2 (Homo sapiens, UniProt P19784)
Method in brief: as §1

Sequence of SGK1 (O00141 whole entry, the tested form may be a part): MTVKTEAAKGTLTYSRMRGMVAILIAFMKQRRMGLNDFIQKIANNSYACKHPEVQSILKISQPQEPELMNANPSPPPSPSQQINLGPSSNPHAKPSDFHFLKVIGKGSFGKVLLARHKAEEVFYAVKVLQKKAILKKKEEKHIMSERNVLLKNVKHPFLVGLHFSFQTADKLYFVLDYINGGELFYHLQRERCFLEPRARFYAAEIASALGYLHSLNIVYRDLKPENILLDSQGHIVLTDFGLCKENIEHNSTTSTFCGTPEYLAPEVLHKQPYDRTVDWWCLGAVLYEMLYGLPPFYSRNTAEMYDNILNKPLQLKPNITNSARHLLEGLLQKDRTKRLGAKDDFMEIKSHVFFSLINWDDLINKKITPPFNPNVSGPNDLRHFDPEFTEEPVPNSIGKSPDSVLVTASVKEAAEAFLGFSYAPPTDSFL

- inhibition at 1 µM [1]: -1%
- inhibition at 1 µM [2]: 13%
- inhibition at 1 µM [3]: 1%
- inhibition at 1 µM [4]: -4%
- inhibition at 1 µM [5]: 18%
- inhibition at 1 µM [6]: -4%
- inhibition at 1 µM [7]: -13%
- inhibition at 1 µM [8]: -4%
- inhibition at 1 µM [9]: -14%
- inhibition at 1 µM [10]: -10%
- inhibition at 1 µM [11]: -12%
- inhibition at 1 µM [12]: 8%
- inhibition at 1 µM [13]: -6%
- inhibition at 1 µM [14]: 2%
- inhibition at 1 µM [15]: -1%
- inhibition at 1 µM [16]: -9%
- inhibition at 1 µM [17]: 6%
- inhibition at 1 µM [18]: -14%
Compound: C[C@@H](Oc1cc(-c2cnn(C3CCNCC3)c2)cnc1N)c1c(Cl)ccc(F)c1Cl [crizotinib]
